US20250213558A1, “T-TYPE CALCIUM CHANNEL MODULATORS COMPRISING A PIPERAZINE OR 1,4-DIAZEPANE CORE AND METHODS OF USE THEREOF” (Praxis Precision Medicines, Inc., priority 2022, published 2025)

Target: T1, Human Cav3.1 calcium channel (Homo sapiens, UniProt O43497)
T1 construct: expressed in transfected cells; host or cells: HEK-293 natClytin/TASK1+Cav3.1 cell line
Assay: Human Cav3.1 calcium channel patch clamp assay (SyncroPatch 384PE; single point and IC50, voltage dependent block)
Format: cell-based
Settings: HEK-293 natClytin/TASK1+Cav3.1 cell line; for % Inhibition (Single Point Data): Testing Conc 1.25, patch clamp; for IC50: voltage dependent block (VDB), read-out: Cav3.1 IC50
Outline: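 Automated whole-cell patch clamp at room temperature, cells held at −120 mV; 100 ms step to −20 mV (resting block), then 1600 ms at −65 mV and a second −20 mV step (voltage-dependent block), every 15 s. Peak currents averaged over last 3 sweeps; % inhibition relative to nickel-sensitive current.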

T1 sequence (O43497 whole entry): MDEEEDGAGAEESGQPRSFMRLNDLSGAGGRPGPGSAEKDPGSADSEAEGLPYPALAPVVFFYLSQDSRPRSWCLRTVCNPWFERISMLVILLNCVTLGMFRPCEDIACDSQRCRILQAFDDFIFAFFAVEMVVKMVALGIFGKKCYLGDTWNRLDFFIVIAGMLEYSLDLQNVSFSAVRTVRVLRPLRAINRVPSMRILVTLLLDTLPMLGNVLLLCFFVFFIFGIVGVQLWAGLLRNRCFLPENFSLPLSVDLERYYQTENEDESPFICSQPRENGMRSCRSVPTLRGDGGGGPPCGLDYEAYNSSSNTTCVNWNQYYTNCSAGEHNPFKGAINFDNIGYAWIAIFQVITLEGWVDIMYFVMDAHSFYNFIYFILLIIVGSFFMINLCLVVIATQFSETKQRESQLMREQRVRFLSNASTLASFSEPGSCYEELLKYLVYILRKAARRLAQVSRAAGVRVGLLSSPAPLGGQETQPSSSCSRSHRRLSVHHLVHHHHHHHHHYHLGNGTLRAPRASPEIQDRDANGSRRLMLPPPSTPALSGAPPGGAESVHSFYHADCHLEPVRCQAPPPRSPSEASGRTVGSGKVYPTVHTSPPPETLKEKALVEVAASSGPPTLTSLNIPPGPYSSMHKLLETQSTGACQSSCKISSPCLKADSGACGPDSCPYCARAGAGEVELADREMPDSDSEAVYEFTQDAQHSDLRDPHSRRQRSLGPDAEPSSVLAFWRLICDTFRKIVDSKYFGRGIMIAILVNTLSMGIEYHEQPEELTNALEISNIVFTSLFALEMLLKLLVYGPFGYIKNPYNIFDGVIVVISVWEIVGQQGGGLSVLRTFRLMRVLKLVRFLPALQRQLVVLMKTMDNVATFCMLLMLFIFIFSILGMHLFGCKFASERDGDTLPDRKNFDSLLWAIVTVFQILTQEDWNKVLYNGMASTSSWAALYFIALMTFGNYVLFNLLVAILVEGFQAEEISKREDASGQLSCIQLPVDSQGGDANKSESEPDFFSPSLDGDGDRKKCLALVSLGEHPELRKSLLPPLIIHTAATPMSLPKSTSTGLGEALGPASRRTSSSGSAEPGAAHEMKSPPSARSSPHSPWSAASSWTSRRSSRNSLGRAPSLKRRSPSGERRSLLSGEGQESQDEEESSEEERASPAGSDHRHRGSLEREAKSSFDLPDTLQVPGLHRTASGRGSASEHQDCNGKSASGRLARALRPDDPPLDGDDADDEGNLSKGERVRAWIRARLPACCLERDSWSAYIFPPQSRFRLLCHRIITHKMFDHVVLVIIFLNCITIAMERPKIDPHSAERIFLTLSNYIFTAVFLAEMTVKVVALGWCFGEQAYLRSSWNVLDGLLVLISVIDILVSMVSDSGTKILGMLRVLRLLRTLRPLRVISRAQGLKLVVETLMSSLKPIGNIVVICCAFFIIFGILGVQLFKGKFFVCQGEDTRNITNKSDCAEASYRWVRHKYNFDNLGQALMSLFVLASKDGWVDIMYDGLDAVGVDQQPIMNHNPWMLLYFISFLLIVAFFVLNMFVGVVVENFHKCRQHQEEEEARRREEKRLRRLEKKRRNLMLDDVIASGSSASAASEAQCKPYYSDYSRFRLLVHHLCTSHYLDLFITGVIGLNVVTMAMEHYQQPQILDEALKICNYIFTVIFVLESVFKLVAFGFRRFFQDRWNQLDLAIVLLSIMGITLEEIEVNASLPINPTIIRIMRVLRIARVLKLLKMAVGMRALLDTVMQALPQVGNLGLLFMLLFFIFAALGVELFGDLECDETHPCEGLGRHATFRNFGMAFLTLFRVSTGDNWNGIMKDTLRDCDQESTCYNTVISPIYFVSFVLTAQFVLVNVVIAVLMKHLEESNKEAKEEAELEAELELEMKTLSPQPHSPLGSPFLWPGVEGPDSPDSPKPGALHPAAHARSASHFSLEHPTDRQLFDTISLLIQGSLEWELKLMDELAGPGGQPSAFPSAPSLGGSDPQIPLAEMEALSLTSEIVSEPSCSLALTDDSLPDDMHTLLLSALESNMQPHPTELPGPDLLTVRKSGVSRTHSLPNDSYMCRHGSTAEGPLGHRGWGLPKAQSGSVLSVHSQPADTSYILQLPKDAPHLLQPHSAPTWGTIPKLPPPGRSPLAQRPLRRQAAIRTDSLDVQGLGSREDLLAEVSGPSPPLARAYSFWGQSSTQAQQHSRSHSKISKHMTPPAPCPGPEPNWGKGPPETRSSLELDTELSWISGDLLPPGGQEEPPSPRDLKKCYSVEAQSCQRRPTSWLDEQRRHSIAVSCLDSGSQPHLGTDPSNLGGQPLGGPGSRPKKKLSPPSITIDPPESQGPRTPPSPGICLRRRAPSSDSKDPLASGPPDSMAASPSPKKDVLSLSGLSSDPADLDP

Structure (SMILES)	% Inhibition (Single Point Data) [%]	IC50 [nM]
O=C(CN1C[C@@H]2C[C@H]1CN2CC(=O)N1CCC(F)(F)CC1)NC12CC3CC(CC(C3)C1)C2 [Compound 316]	70.161	370
CC1(C)CN(C(=O)CN2C[C@@H]3C[C@H]2CN3CC(=O)NC23CC4CC(CC(C4)C2)C3)C1 [Compound 317]	48.399	1080
O=C(CN1C[C@@H]2C[C@H]1CN2CCC1CCC(F)(F)CC1)NC12CC3CC(CC(C3)C1)C2 [Compound 318]	88.753	304
O=C(CN1C[C@@H]2C[C@H]1CN2CC(=O)NC1(C(F)(F)F)COC1)NC12CC3CC(CC(C3)C1)C2 [Compound 319]	23.628	2080
COc1cc(F)cc(NC(=O)CN2C[C@@H]3C[C@H]2CN3CC(=O)NC2(C(F)(F)F)CC2)c1 [Compound 320]	87.599	185
CC(C)(C)NC(=O)CN1C2CC1CN(CC(=O)NC1CCCC(OC(F)F)C1)C2 (stereo not drawn) [Compound 321]	66.321	819
CC(C)(C)NC(=O)CN1C2CC(CNC(=O)c3cc(F)cc(Cl)c3)CC1C2 (stereo not drawn) [Compound 322]	91.88	185
CC(C)(C)NC(=O)CN1C[C@@H]2C[C@H]1CN2CCNC(=O)C12CC3CC(CC(C3)C1)C2 [Compound 323]	17.66	3390
O=C(CN1C[C@@H]2C[C@H]1CN2CC(=O)NC1(C(F)(F)F)CC1)Nc1cc(F)cc(OC(F)F)c1 [Compound 324]	100.07	–
C[C@H](NC(=O)CN1CC2CC(C1)N2CC(=O)NC(C)(C)C)C12CC3CC(CC(C3)C1)C2 [Compound 325]	22.59	2600
C[C@H](NC(=O)CN1C[C@@H]2C[C@H]1CN2CC(=O)NC(C)(C)C)C12CC3CC(CC(C3)C1)C2 [Compound 326]	66.987	734
Cc1cc(Cl)cc(NC(=O)CN2C[C@@H]3C[C@H]2CN3CC(=O)NC2(C(F)(F)F)CC2)c1 [Compound 327]	87.352	289
CC1(C)CCN1C(=O)CN1C[C@@H]2C[C@H]1CN2CC(=O)NC12CC3CC(CC(C3)C1)C2 [Compound 328]	48.833	–
CC(C)(CCN1C[C@@H]2C[C@H]1CN2CC(=O)NC12CC3CC(CC(C3)C1)C2)C(F)(F)F [Compound 329]	59.633	–
O=C(CN1C[C@@H]2C[C@H]1CN2CC(=O)NC1(C(F)(F)F)CC1)Nc1ccc(F)c(OC(F)F)c1 [Compound 330]	96.893	–
COc1cc(NC(=O)CN2CC3CC(C2)N3CC(=O)NC(C)(C)C)ccc1Cl [Compound 331]	102.24	–
COc1cc(NC(=O)CN2CC3CC(C2)N3CC(=O)NC2(C(F)(F)F)CC2)ccc1Cl [Compound 332]	101.57	–
COc1cc(F)cc(NC(=O)CN2CC3CC(C2)N3CC(=O)NC2(C(F)(F)F)CC2)c1 [Compound 333]	82.813	178
COc1cc(Cl)cc(NC(=O)CN2CC3CC(C2)N3CC(=O)NC2(C(F)(F)F)CC2)c1 [Compound 334]	79.86	–
Cc1cc(F)cc(NC(=O)CN2CC3CC(C2)N3CC(=O)NC2(C(F)(F)F)CC2)c1 [Compound 335]	84.646	338
Cc1cc(Cl)cc(NC(=O)CN2CC3CC(C2)N3CC(=O)NC2(C(F)(F)F)CC2)c1 [Compound 336]	87.863	–
COc1cc(NC(=O)CN2C[C@@H]3C[C@H]2CN3CC(=O)NC(C)(C)C)ccc1Cl [Compound 337]	95.366	< 78.2
COc1cc(Cl)cc(NC(=O)CN2C[C@@H]3C[C@H]2CN3CC(=O)NC2(C(F)(F)F)CC2)c1 [Compound 339]	87.995	249

Structure (SMILES)	% Inhibition (Single Point Data) [%]	IC50 [nM]
Cc1cc(NC(=O)CN2C[C@@H]3C[C@H]2CN3CC(=O)NC2(C(F)(F)F)CC2)ccc1F [Compound 340]	50	–
Cc1cc(NC(=O)CN2C[C@@H]3C[C@H]2CN3CC(=O)NC(C)(C)C)ccc1F [Compound 341]	62.973	447
COC12CC3CC(CC(NC(=O)CN4C[C@@H]5C[C@H]4CN5CC(=O)NC(C)(C)C)(C3)C1)C2 [Compound 342]	25.743	1350
CC(C)(C)NC(=O)CN1C[C@@H]2C[C@H]1CN2CC(=O)NC1CCCC(OC(F)F)C1 (stereo partly drawn) [Compound 343]	32.872	1930
CC(C)(C)NC(=O)CN1C[C@@H]2C[C@H]1CN2CC(=O)NC12CC3CC(CC(Cl)(C3)C1)C2 [Compound 344]	79.298	417
CC(C)(C)NC(=O)CN1C2CC1CN(CC(=O)NC13CC4CC(CC(Cl)(C4)C1)C3)C2 [Compound 345]	42.634	1190
CC(C)(C)NC(=O)CN1C[C@@H]2C[C@H]1CN2CC(=O)NC12CC3CC(C1)CC(OC(F)F)(C3)C2 [Compound 346]	86.624	399
O=C(CN1C[C@@H]2C[C@H]1CN2CC(=O)NC1(C(F)(F)F)CC1)Nc1cc(F)c(F)c(Cl)c1 [Compound 347]	–	< 78.2
CC(C)(C)NC(=O)CN1C[C@@H]2C[C@H]1CN2CC(=O)Nc1cc(F)c(F)c(Cl)c1 [Compound 348]	–	< 78.2
O=C(CN1CC2CC(C1)N2CC(=O)NC1(C(F)(F)F)CC1)Nc1cc(F)c(F)c(Cl)c1 [Compound 349]	–	< 78.2
CC(C)(C)NC(=O)CN1C2CC1CN(CC(=O)Nc1cc(F)c(F)c(Cl)c1)C2 [Compound 350]	–	< 78.2
COc1cc(NC(=O)CN2C[C@@H]3C[C@H]2CN3CC(=O)NC2(C(F)(F)F)CC2)cc(F)c1F [Compound 351]	–	131
COc1cc(NC(=O)CN2CC3CC(C2)N3CC(=O)NC2(C(F)(F)F)CC2)cc(F)c1F [Compound 352]	–	133
COc1cc(NC(=O)CN2CC3CC(C2)N3CC(=O)NC(C)(C)C)cc(F)c1F [Compound 353]	–	97
COc1cc(NC(=O)CN2C[C@@H]3C[C@H]2CN3CC(=O)NC(C)(C)C)cc(F)c1F [Compound 354]	–	94
Cc1ccc(NC(=O)CN2C[C@@H]3C[C@H]2CN3CC(=O)NC2(C(F)(F)F)CC2)cc1Cl [Compound 355]	–	1070
CC(C)(C)NC(=O)CN1C[C@@H]2C[C@H]1CN2CC(=O)Nc1cc(F)c(F)c(OC(F)F)c1 [Compound 356]	–	74
CC(C)(C)NC(=O)CN1C[C@@H]2C[C@H]1CN2CC(=O)Nc1ccc(Cl)c(OC(F)F)c1 [Compound 357]	–	82
O=C(CN1C[C@@H]2C[C@H]1CN2CC(=O)NC1(C(F)(F)F)CC1)Nc1ccc(Cl)c(OC(F)F)c1 [Compound 358]	–	172
O=C(CN1C[C@@H]2C[C@H]1CN2CC(=O)NC1(C(F)(F)F)CC1)Nc1cc(F)c(F)c(OC(F)F)c1 [Compound 359]	–	176
CC(C)(C)NC(=O)CN1C2CC1CN(CC(=O)Nc1cc(F)c(F)c(OC(F)F)c1)C2 [Compound 360]	–	76
O=C(CN1CC2CC(C1)N2CC(=O)NC1(C(F)(F)F)CC1)Nc1cc(F)c(F)c(OC(F)F)c1 [Compound 361]	–	127
